Assay results as given in patent publication US20240116879A1, “AMILORIDE DERIVATIVES AND METHODS OF USING SAME FOR THE TREATMENT OF VIRAL INFECTIONS” (priority 2020, published 2024).

Columns and labels:
human coronavirus OC43 = format: cell-based; details: for effect on virus titer (in words): 50 μM or 100 μM, Vero E6, MOI=1, 24 hours at 33° C.; for reduced virus titer: 100 μM, Vero E6, MOI=1, 24 hr, plaque formation
[1] = test system: SARS-CoV-2 stem loop constructs (SL1, SL4, SL5a, SL5b, SL6); format: binding; details: RiboGreen displacement, Tris buffer pH 7.4
SARS-CoV-2 [2] = format: cell-based; details: for viral titer compared to DMSO (TCID50 assay): 10 μM and 50 μM, MOI 0.1, 3 days; for antiviral activity compared to parent scaffold DMA-01: Vero E6 infected with wild-type SARS-CoV-2
VeroE6 cells = details: uninfected VeroE6, 3 days of treatment, 10 μM and 50 μM
Vero E6 cells = assay: Cytotoxicity MTT assay in Vero E6 cells; format: cell-based, African green monkey; details: <10 μM, 96 hour, Vero E6
Protocol: (§1) Cytotoxicity Assays: Various concentrations of DMAs were added to Vero E6 cells in culture. The cells were incubated at 33° C. for 96 hrs. Cell viability was determined by MTT assay and measured at 570 nm according to the manufacturer's instructions (EMD Millipore). All experiments were performed in triplicate. The concentration of DMAs required to reduce cell viability to 50% of the control cells was expressed as CC50.

[3] = Cytotoxicity MTT assay in Vero E6 cells; format: cell-based, African green monkey; details: African green monkey, Vero E6 cells; Vero E6, 96 hrs, 33° C., MTT
Protocol: as §1

[4] = test system: SARS-CoV-2 5′-end and 3′UTR; format: cell-based
SARS-CoV-2 SL1 RNA = assay: Indicator displacement assay (IDA), SL1; format: binding; details: RiboGreen displacement, Tris buffer pH 7.4
SARS-CoV-2 SL4 RNA = assay: Indicator displacement assay (IDA), SL4; format: binding; details: RiboGreen displacement, Tris buffer pH 7.4
SARS-CoV-2 SL6 RNA = assay: Indicator displacement assay (IDA), SL6; format: binding; details: RiboGreen displacement, Tris buffer pH 7.4
SARS-CoV-2 [5] = assay: microbe, parasite or virus in culture; format: cell-based; details: Severe acute respiratory syndrome coronavirus 2, Vero C1008; Vero E6, MOI 0.1, within 24 hours of infection; read-out: approximate IC50, cell-free viral RNA levels

Structure (SMILES): CN(C)c1nc(N)c(C(=O)N=C(N)N)nc1Cl [DMA-1, dimethylamiloride, reference compound]
- effect on virus titer (in words) (human coronavirus OC43): no activity
- binding affinity against any of the constructs (IDA) [1]: did not show binding affinity

Structure (SMILES): CN(C)c1nc(N)c(C(=O)NC(=N)N)nc1-c1ccccc1 [DMA-132]
- viral titer compared to DMSO (TCID50 assay) (SARS-CoV-2 [2]): dose-dependent reduction in viral titer
- antiviral activity compared to parent scaffold DMA-01 (SARS-CoV-2 [2]): improved antiviral activity
- cellular viability as measured by ATP content (VeroE6 cells): without measurable effect on cellular viability
- effect on virus titer (in words) (human coronavirus OC43): reduce virus titer in a dose-dependent manner
- reduced virus titer (human coronavirus OC43): ~1,000 fold
- binding affinity against any of the constructs (IDA) [1]: did not show binding affinity
- cell viability (Vero E6 cells): do not significantly reduce cell viability
- CC50 at 96 h [3]: > 100 µM
- reduction of FLuc activity [4]: approximately 50%

Structure (SMILES): CN(C)c1nc(N)c(C(=O)NC(=N)N)nc1C#Cc1ccccc1 [DMA-135]
- viral titer compared to DMSO (TCID50 assay) (SARS-CoV-2 [2]): dose-dependent reduction in viral titer
- antiviral activity compared to parent scaffold DMA-01 (SARS-CoV-2 [2]): improved antiviral activity
- affinity for SL1 (IDA) (SARS-CoV-2 SL1 RNA): weak affinity
- affinity for SL4 (IDA) (SARS-CoV-2 SL4 RNA): weak affinity
- cellular viability as measured by ATP content (VeroE6 cells): without measurable effect on cellular viability
- affinity for SL6 (IDA) (SARS-CoV-2 SL6 RNA): weak affinity
- effect on virus titer (in words) (human coronavirus OC43): reduce virus titer in a dose-dependent manner
- reduced virus titer (human coronavirus OC43): ~1,000 fold
- cell viability (Vero E6 cells): do not significantly reduce cell viability
- CC50 at 96 h [3]: > 100 µM
- reduction of FLuc activity [4]: approximately 50%
- IC50 (SARS-CoV-2 [5]): ~10 µM

Structure (SMILES): CN(C)c1nc(N)c(C(=O)NC(=N)N)nc1-c1ccc(-c2ccccc2)cc1 [DMA-155]
- antiviral activity compared to parent scaffold DMA-01 (SARS-CoV-2 [2]): improved antiviral activity
- affinity for SL6 (IDA) (SARS-CoV-2 SL6 RNA): strong binder with highest affinity for SL6
- effect on virus titer (in words) (human coronavirus OC43): reduce virus titer in a dose-dependent manner
- reduced virus titer (human coronavirus OC43): ~1,000 fold
- cell viability (Vero E6 cells): do not significantly reduce cell viability
- CC50 at 96 h [3]: ~90 µM
- reduction of FLuc activity [4]: ~90%
- IC50 (SARS-CoV-2 [5]): ~16 µM
